Experimental findings from patent US20110082329A1, “Modification of Sperm Motility and Its Storage Shelf Time” (priority 2008, published 2011) are described below.

For test [1], the system named is sea urchins (Lytechinus pictus) sperms. The experiment in a line: Sea urchin sperm motility by video microscopy / CASA. In kind it is cell-based.
For test [2] the test system is unchanged. The test is described as above. The format is cell-based. The following applies: control = 100%. Here is the method:
Sperms originating from ripe sea urchins (Lytechinus pictus) showing genetic and functional similarity to human and animal sperms are used (R. Felix: Reproduction 129, 251-262 (2005).
(§1) Animals were washed by sequential immersion into 100 ml cold (approximately 5° C.) sperm storage buffer (SSB) pH 6.0. Used SSB composition: 50 mmol/L KCl, 5.0 mmol/L N-tris(hydroxymethyl)methyl-3-aminopropanesulphonic acid (TAPS), 425 mmol/L NaCl, 27 mmol/L MgCl2, 29 mmol/L MgSO4, 10 mmol/L CaCl2 and 2.4 mmol/L NaHCO3. Shedding of gametes was induced by intracoelomic injection of 2.0 ml cold 0.5 mol/L KCl through several sites on the peristomial membrane of the oral side. Sperm were collected by inverting male sea urchins over beakers containing approximately 100 ml cold MES sperm storage buffer (MSSB) pH 6.0. Used MSSB composition: 50 mmol/L KCl, 5.0 mM 2-[N-morpholino]ethanesulphonic acid (MES), 5.0 mmol/L TAPS, 425 mmol/L NaCl, 27 mmol/L MgCl2, 29 mmol/L MgSO4, 10 mmol/L CaCl2 and 2.4 mmol/L NaHCO3. A pool of sperm from several animals was made to minimize individual variations. Sperms were incubated in room temperature for 20 min. in 0.1-10 ml fractions diluted with 0.1-1000 ml activation buffer (ASW) pH 8.3. ASW composition: 50 mmol/L KCl, 5.0 mmol/L TAPS, 425 mmol/L NaCl, 27 mmol/L MgCl2, 29 mmol/L MgSO4, 10 mmol/L CaCl2, 2.4 mmol/L NaHCO3 and 1.0 mg/ml bovine serum albumin (BSA). The activation buffer contains the appropriate metal ions in a given concentration. […] Metal ions were used as Cl^− salts. Video microscopy was performed at room temperature (22° C.) using a Nikon Diaphot inverted microscope with 20× BM phase objective and 1× video adapter connected to a Dage CCD72 camera. […] The video signal was sent via a video time clock to a Panasonic VHS video recorder. Motility was recorded on multiple viewing fields for 15 sec per field until the recorded total sperm number reached 400. Video tapes were analyzed using CellTrack system. Measurements were carried out in triplicates. Sperm motility is expressed in %, where control values represent 100% (Bracho et al.: “A Method for Preparation, Storage and Activation of Large Populations of Immotile Sea Urchin Sperm”, BBRC 237, 59-62 (1997)).
(§2) Measurements are carried out using CASA (Computer Assisted Sperm Analysis) method within 12 hours following sperm collection or ejaculation.

Test [3] relates to human sperm from ejaculates of healthy donors. As to the kind of experiment: Human sperm motility by video microscopy / CASA. In kind it is cell-based. To be noted: control = 100%. The procedure:
as §1
Sperms originating from ejaculates (2.0-5.0 ml) of healthy donors are diluted with 2.0-1000 ml cold MSSB buffer following liquidification and homogenized without modification of motility. From this point, sample handling and motility measurement is carried out as described in example#1.
as §2

The next test concerns sea urchin sperm. As to the kind of experiment: Sea urchin sperm motility time course: storage in high Ni^2+, then 100-fold dilution. The format is cell-based, Lytechinus pictus. To be noted: time point 0 = 100%. The procedure:
as §1
a) Preparations of sea urchin sperm are produced as described in example 1. Motility measurements are carried out in predetermined time points as described in example#1 starting from time point 0. The activation buffer at time point 0 is supplemented with 20 mmol/L Ni^2+ as NiCl2. After 4 hours, sperm suspensions are diluted 100-fold with activation buffer, achieving 200 μmol/L final Ni^2+ concentration. Measurements of motility are carried out further. Sperm motility is expressed in %, where control values at time point 0 represent 100%.

`[Cd+2]` [Cd^2+]: the “motility (%)” value in test [1] (3.5 μmol/L Cd^2+, control printed as 64.0) is 49.1%.
With `[Co+2]` [Co^2+], the “motility (%)” value in test [2] (1 μmol/L metal ion) amounted to 108.6%; in test [2] (10 μmol/L metal ion), 118.2%; in test [2] (100 μmol/L metal ion), 127.5%; in test [2] (1 mmol/L metal ion) it was 101.1%; in test [2] (10 mmol/L metal ion), 92.9%; in test [3] (1 μmol/L metal ion), 106.2%. For the same compound, the “motility (%)” value in test [3] (10 μmol/L metal ion) is reported as 112.7%; in test [3] (100 μmol/L metal ion), 122.5%; in test [3] (1 mmol/L metal ion), 98.2%; in test [3] (10 mmol/L metal ion) it was 91.0%.
Turning to `[Ni+2]` [Ni^2+], the “motility (%)” value is recorded as 111.4% in test [2] (1 μmol/L metal ion); 127.3% in test [2] (10 μmol/L metal ion); 132.0% in test [2] (100 μmol/L metal ion); 98.6% in test [2] (1 mmol/L metal ion); 85.2% in test [2] (10 mmol/L metal ion); 105.7% in test [3] (1 μmol/L metal ion). For the same compound, the “motility (%)” value is recorded as 126.9% in test [3] (10 μmol/L metal ion); 129.5% in test [3] (100 μmol/L metal ion); 93.2% in test [3] (1 mmol/L metal ion); 88.9% in test [3] (10 mmol/L metal ion); 99.0% in the test on sea urchin sperm (time 0:20, 20 mmol/L Ni^2+); 85.7% in the test with sea urchin sperm (time 1:00, 20 mmol/L Ni^2+). Further, the “motility (%)” value in the test on sea urchin sperm (time 2:00, 20 mmol/L Ni^2+) came out at 86.8%; in the test on sea urchin sperm (time 3:00, 20 mmol/L Ni^2+) it was 81.6%; with sea urchin sperm (time 4:00, 20 mmol/L Ni^2+), 76.3%; in the test with sea urchin sperm (time 4:20, after 100-fold dilution at 4 hours to 200 μmol/L Ni^2+), 102.6%; with sea urchin sperm (time 5:00, after 100-fold dilution at 4 hours to 200 μmol/L Ni^2+), 119.0%; in the test with sea urchin sperm (time 6:00, after 100-fold dilution at 4 hours to 200 μmol/L Ni^2+), 123.5%. Besides, the “motility (%)” value with sea urchin sperm (time 7:00, after 100-fold dilution at 4 hours to 200 μmol/L Ni^2+) was determined as 123.0%; in the test with sea urchin sperm (time 8:00, after 100-fold dilution at 4 hours to 200 μmol/L Ni^2+), 120.6%.
For `[Zn+2]` [Zn^2+], the “motility (%)” value in test [1] (16 μmol/L Zn^2+, control printed as 64.3) was 51.0%.
